Source: US20230027026A1, “FUSED PYRIMIDINE COMPOUNDS, COMPOSITIONS AND MEDICINAL APPLICATIONS THEREOF” (JUBILANT BIOSYS LIMITED, priority 2019, published 2023)

Experiments:
A431 cells = assay: Cellular proliferation (Alamar Blue) assay, A431; type: cell-based; conditions: Homo sapiens, A-431; A431 cells, 72 hr, Alamar Blue; read-out: A431 IC50
Summary of the method: (§1)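 Seventy-two-hour growth assay with 3-fold compound titration (final 10–0.0005 μM) and Alamar Blue fluorescence end point, ex 540/em 590 nm.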

EGFR (T790M/L858R) = target: T1, EGFR (T790M/L858R) (Homo sapiens, UniProt P00533, L858R/T790M); assay: EGFR L858R/T790M enzyme inhibition assay (HTRF); type: biochemical; conditions: 5 μM ATP, 60 min, read-out: EGFR_L858R T790M_IC50_nM
T1 construct: GST; purchased Proqinase
Summary of the method: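 HTRF kinase assay with 2.5 nM GST-EGFR T790M/L858R, 0.5 μM biotinylated gastrin peptide and 5 μM ATP in HEPES pH 7.4 with Mg/Mn, 60 min at room temperature; compounds from 10 μM top. Phosphotyrosine detected by Eu anti-pTyr/SA-APC; IC50 from % inhibition.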

[1] = target: EGFR (A767_dupASV) expressing Ba/F3 stable cell line (Homo sapiens, UniProt P00533, DUP767-769, cells depend on it); assay: Cellular proliferation (Alamar Blue) assay, EGFR A767_dupASV Ba/F3; type: cell-based; conditions: EGFR A767_dupASV Ba/F3, 72 hr, read-out: A767 IC50
Summary of the method: as §1

[2] = target: HER2 (A775_G776insYVMA) expressing Ba/F3 stable cell line (Homo sapiens, UniProt P04626, DUP772-775, cells depend on it); assay: Cellular proliferation (Alamar Blue) assay, HER2 YVMA Ba/F3; type: cell-based; conditions: HER2 A775_G776insYVMA Ba/F3, 72 hr, read-out: YVMA IC50
Summary of the method: as §1

[3] = test system: H1975 cells (L858R_T790M mutant); assay: H1975 proliferation assay; type: cell-based; conditions: Homo sapiens, NCI-H1975; read-out: Proliferation_Assay H1975 cells-EC50_nM L858R_T790M_mutant
[4] = target: HER2 (WT) expressing Ba/F3 stable cell line (Homo sapiens, UniProt P04626); assay: Cellular proliferation (Alamar Blue) assay, HER2 WT Ba/F3; type: cell-based; conditions: HER2 WT Ba/F3, 72 hr, read-out: HER2 WT Ba/F3 IC50
Experimental: (§2) Example 3: Cellular Proliferation (Alamar Blue) Assays
(§3) • 1. EGFR(D770_N771insSVD) expressing Ba/F3 stable cell line • 2. EGFR (A767_dupASV) expressing Ba/F3 stable cell line • 3. A431 cells • 4. BTER2 (A775_G776insYVMA) expressing Ba/F3 stable cell line • 5. BTER2 (WT) expressing Ba/F3 stable cell line • 6. BT-474 cells
(§4) • 1. Seed cells at 5000 for A431 and 15,000 cells for Ba/F3 in 100 μL/well in complete media (for A431: DMEM with 10% FBS and for Ba/F3 cells: RPMI with 10% FBS) in 96-well tissue culture plate. Leave outer wells without cells for background measurements. Incubate at 37 degree Celsius in 5% CO2 humidified incubator for 16-18 hours. • 2. Add 0.025 ml of 5× concentration compound dilution or DMSO control. Final compound concentration range is 10-0.0005 μM prepared in 3-fold serial dilutions. Incubate for 72 hr at 37 degree Celsius in […] humidified incubator. • 3. Add 0.0125 mL Alamar Blue™ reagent to each well with multi-channel pipette and tap gently on each side of the plate to mix. Incubate for 3 hours at 37 degree Celsius in […] humidified incubator. • 4. Read plates on fluorescence reader (Tecan Spark Control, Device: Spark, Serial #: 1801006040) at 540 nm excitation, 590 nm emission wavelength. • 5. Data analysis was performed using XLfit 5.5.0.5.

[5] = target: EGFR(D770_N771insSVD) expressing Ba/F3 stable cell line (Homo sapiens, UniProt P00533, DUP768-770, cells depend on it); assay: Cellular proliferation (Alamar Blue) assay, EGFR D770_N771insSVD Ba/F3; type: cell-based; conditions: EGFR D770_N771insSVD Ba/F3, 72 hr, read-out: D770 IC50
Summary of the method: as §1

BT-474 cells = assay: Cellular proliferation (Alamar Blue) assay, BT-474; type: cell-based; conditions: Homo sapiens
Experimental: as §2, §3, §4

T1 sequence (P00533 25-1210 T790M/L858R): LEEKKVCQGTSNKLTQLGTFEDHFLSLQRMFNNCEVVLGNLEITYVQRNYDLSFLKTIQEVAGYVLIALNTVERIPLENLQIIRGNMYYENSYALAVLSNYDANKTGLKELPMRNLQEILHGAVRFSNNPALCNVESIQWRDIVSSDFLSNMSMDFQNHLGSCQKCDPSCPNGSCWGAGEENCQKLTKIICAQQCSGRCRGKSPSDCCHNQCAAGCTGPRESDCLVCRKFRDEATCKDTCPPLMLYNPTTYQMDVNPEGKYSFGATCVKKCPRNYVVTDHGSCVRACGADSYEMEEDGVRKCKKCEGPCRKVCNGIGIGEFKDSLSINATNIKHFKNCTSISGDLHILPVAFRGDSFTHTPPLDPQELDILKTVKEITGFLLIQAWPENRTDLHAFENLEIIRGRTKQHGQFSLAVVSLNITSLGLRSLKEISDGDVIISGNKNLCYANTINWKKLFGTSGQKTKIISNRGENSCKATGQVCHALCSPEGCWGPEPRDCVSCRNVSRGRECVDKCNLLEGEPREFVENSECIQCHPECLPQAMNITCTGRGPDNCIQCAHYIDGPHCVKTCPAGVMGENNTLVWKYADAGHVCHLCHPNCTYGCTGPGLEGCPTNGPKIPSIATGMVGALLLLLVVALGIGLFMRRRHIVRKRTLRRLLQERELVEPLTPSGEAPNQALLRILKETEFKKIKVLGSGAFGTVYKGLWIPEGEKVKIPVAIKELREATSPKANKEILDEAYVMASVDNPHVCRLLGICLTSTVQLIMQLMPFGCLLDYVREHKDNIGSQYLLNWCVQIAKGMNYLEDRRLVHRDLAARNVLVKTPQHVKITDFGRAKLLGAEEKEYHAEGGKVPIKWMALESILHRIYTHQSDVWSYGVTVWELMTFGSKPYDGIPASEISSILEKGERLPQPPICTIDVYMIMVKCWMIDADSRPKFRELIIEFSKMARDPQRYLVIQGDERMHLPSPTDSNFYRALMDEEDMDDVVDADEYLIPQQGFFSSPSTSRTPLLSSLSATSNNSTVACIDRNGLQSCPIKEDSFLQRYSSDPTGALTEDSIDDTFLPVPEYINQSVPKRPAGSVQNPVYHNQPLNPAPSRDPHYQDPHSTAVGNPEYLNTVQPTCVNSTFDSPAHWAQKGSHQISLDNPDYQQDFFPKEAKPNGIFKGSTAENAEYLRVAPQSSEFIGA
Chain of EGFR(D770_N771insSVD) expressing Ba/F3 stable cell line (P00533 with tags, fused parts or gaps DUP768-770): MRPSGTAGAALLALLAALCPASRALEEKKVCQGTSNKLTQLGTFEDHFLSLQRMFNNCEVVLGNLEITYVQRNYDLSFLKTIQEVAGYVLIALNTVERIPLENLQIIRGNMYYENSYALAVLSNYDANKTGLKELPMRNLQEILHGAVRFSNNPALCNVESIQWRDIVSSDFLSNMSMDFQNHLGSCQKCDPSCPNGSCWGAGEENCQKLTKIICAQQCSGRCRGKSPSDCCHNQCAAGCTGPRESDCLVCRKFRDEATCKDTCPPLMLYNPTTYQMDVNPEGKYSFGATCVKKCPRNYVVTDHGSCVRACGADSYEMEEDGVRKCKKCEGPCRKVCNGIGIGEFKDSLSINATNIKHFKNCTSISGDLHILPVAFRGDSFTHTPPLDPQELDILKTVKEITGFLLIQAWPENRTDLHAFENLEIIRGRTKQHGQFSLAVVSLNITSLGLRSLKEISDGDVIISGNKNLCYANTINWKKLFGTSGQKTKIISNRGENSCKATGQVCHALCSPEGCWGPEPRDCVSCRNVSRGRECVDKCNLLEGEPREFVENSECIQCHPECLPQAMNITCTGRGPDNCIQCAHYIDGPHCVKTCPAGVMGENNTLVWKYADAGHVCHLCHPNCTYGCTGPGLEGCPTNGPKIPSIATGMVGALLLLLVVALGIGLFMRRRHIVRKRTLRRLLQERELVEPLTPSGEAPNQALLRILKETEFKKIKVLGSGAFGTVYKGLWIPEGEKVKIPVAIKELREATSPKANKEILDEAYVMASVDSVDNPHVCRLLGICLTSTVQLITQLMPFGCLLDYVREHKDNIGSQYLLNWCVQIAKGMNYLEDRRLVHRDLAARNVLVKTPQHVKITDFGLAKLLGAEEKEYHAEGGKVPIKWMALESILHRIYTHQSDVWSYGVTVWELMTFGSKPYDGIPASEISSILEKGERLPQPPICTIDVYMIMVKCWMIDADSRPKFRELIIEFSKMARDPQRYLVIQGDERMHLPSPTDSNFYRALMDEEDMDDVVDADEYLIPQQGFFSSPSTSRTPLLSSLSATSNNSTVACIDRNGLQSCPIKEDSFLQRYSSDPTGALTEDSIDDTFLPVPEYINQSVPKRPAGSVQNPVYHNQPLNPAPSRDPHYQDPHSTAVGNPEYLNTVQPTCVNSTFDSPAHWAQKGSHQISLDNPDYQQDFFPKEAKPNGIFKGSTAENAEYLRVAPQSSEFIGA
Chain of HER2 (A775_G776insYVMA) expressing Ba/F3 stable cell line (P04626 with tags, fused parts or gaps DUP772-775): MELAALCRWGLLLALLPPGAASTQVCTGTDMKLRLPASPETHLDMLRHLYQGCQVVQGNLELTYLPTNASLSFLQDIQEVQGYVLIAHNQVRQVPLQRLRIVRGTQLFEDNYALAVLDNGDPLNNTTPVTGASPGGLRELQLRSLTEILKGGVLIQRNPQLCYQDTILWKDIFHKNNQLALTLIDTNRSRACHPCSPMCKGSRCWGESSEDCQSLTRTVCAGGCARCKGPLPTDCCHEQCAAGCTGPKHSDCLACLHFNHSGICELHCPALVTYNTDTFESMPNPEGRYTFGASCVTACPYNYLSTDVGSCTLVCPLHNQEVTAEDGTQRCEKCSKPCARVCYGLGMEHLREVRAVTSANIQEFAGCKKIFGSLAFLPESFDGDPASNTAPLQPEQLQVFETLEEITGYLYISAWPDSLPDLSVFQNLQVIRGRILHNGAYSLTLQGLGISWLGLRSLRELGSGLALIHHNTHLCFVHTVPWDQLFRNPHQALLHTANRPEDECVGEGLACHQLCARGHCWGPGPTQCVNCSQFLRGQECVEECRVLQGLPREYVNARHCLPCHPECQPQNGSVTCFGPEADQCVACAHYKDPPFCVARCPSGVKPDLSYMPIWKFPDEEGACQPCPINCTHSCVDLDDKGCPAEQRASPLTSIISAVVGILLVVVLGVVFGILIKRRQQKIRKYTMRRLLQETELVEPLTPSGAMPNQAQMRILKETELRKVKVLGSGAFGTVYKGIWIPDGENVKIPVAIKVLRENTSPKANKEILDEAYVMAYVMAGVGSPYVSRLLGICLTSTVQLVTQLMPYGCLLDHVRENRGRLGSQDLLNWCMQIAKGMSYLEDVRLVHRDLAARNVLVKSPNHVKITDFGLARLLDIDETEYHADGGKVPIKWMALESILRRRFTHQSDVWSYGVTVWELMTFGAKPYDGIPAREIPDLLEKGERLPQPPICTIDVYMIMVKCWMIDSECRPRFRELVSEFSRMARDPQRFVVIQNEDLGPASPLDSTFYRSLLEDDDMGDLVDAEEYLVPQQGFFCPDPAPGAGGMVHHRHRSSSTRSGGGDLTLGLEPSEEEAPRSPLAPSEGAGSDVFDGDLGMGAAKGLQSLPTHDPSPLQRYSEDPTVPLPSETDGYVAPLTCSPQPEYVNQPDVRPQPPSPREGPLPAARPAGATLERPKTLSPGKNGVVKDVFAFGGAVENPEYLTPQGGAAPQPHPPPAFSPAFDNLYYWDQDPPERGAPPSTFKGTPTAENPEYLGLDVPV
Chain of EGFR (A767_dupASV) expressing Ba/F3 stable cell line (P00533 with tags, fused parts or gaps DUP767-769): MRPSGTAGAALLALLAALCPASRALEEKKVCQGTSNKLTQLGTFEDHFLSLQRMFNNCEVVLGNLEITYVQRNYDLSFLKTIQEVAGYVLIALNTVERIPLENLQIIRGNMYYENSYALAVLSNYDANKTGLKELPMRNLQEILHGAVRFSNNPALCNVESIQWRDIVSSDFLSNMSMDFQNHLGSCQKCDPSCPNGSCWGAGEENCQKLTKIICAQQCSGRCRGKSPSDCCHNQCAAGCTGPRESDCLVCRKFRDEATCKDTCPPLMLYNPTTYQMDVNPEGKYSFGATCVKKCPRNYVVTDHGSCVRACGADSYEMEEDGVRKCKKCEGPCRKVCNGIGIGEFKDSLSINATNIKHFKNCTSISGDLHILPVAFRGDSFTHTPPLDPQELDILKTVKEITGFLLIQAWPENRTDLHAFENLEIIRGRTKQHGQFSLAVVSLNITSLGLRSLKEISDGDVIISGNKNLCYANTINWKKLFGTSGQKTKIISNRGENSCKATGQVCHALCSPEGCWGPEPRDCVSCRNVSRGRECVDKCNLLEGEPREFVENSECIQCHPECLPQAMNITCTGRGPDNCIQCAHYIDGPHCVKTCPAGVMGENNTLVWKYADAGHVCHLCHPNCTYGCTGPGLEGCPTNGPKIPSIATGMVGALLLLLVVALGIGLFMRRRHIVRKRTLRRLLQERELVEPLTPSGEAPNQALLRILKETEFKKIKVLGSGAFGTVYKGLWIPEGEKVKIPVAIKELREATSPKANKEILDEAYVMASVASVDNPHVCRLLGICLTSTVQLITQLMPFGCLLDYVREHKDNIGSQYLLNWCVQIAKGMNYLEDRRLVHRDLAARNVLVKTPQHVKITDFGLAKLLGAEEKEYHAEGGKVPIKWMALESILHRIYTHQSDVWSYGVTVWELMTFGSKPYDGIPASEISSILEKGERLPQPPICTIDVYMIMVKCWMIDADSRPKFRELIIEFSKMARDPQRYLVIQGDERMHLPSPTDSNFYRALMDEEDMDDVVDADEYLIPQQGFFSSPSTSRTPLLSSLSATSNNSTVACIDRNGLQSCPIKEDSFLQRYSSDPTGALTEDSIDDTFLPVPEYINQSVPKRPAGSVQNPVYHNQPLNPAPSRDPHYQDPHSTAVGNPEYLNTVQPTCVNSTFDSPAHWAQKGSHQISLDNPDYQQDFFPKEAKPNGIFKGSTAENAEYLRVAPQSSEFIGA

Row | Structure (SMILES) | IC50 (A431 cells) [nM] | IC50 (EGFR (T790M/L858R)) [nM] | GI50 [1] [nM] | GI50 [2] [nM] | EC50 [3] [nM] | GI50 [4] [nM] | GI50 [5] [nM] | IC50 (BT-474 cells) [nM]
1 | C=CC(=O)Nc1cccc(N2C(=O)N(Cc3ccccc3)Cc3cnc(Nc4cnn(C)c4)nc32)c1 [Compound 1, N-(3-(3-benzyl-7-((1-methyl-1H-pyrazol-4-yl)amino)-2-oxo-3,4-dihydropyrimido[4,5-d]pyrimidin-1(2H)-yl)phenyl)acrylamide] | 65 | 0.4 | 14 | 9.9 | 6.8 | < 0.5 | 4 | 7.7
2 | CN(C)C/C=C/C(=O)Nc1cccc(N2C(=O)N(Cc3ccccc3)Cc3cnc(Nc4cn(C)nc4Cl)nc32)c1 [Compound 20, (E)-N-(3-(3-benzyl-7-((3-chloro-1-methyl-1H-pyrazol-4-yl)amino)-2-oxo-3,4-dihydropyrimido[4,5-d]pyrimidin-1(2H)-yl)phenyl)-4-(dimethylamino)but-2-enamide] | 595 | 1 | 34 | 14.9 | 2 | 0.7 | 35 | 4.1
3 | CN(C)C/C=C/C(=O)Nc1cccc(N2C(=O)N(c3ccccc3)Cc3cnc(Nc4cn(C)nc4Cl)nc32)c1 [Compound 35, (E)-N-(3-(7-((3-chloro-1-methyl-1H-pyrazol-4-yl)amino)-2-oxo-3-phenyl-3,4-dihydropyrimido[4,5-d]pyrimidin-1(2H)-yl)phenyl)-4-(dimethylamino)but-2-enamide] | 2170 | 7.8 | 12 | 154 | 79 |  | 55 | 
4 | C=CC(=O)Nc1cccc(N2C(=O)N(Cc3ccccc3)Cc3cnc(Nc4ccc(N5CCOCC5)nc4)nc32)c1 [Compound 46, N-(3-(3-benzyl-7-((6-morpholinopyridin-3-yl)amino)-2-oxo-3,4-dihydropyrimido[4,5-d]pyrimidin-1(2H)-yl)phenyl)acrylamide] | 1700 | 2.6 | 14 | 67 | 3.7 |  | 16 | 
5 | CN(C)C/C=C/C(=O)Nc1cccc(N2C(=O)N(Cc3ccccc3)Cc3cnc(Nc4cnn(C)c4)nc32)c1 [Compound 49, (E)-N-(3-(3-benzyl-7-((1-methyl-1H-pyrazol-4-yl)amino)-2-oxo-3,4-dihydropyrimido[4,5-d]pyrimidin-1(2H)-yl)phenyl)-4-(dimethylamino)but-2-enamide] | ≥ 10000 | 0.6 | 351 | 178 | 2.1 |  | 476 | 
